Measured values published in patent US20220313662A1, “SUCCINATE DEHYDROGENASE INHIBITORS FOR BREAKING DORMANCY” (Valent BioSciences LLC, priority 2021, published 2022).

Key:
Type in all cases: in vivo
Concord grape vines [1] = experiment: Example 1: bud break and shoot weight of potted Concord grape vines in a greenhouse; conditions: for Shoot Weight / shoot weight, more than control: 41 days after treatment; for time to 50% bud break, faster than control: rates of Table 1: malonate 3,000 and 10,000 ppm, penthiopyrad 1,428 ppm, inpyrfluxam 486 ppm, pydiflumetofen 968 ppm
Description: (§1) To assess the ability of SDHIs to promote and synchronize bud break and increase shoot weight, SDHIs were applied to shoots of potted 1 year old Concord grape vines grown in a greenhouse and examined for bud break (initiation of growth). Hydrogen cyanamide, malonate (malonic acid), inpyrfluxam, penthiopyrad and pydiflumetofen were each applied individually to the shoots of five potted concord grape rootstocks that were pruned to 5 nodes. Plants were evaluated for bud break periodically starting at 5 days after treatment. Plants were evaluated for shoot weight at 41 days after treatment.

Concord grape vines [2] = experiment: Example 2: bud break and shoot weight of potted Concord grape vines, single SDHIs and mixtures (OCE/ECE, Abbott method); conditions: for Shoot Weight: 41 days after treatment
Description: as §1, with “of” for “of potted”, “old potted” for “old”, “inpyrfluxam,” for “inpyrfluxam, penthiopyrad”, “mixtures of malonate and inpyrfluxam” for “pydiflumetofen”, “applied” for “applied individually”
To determine if the mixtures provided unexpected results, the observed combined efficacy (“OCE”) was divided by the expected combined efficacy (“ECE”) to give an OCE/ECE ratio wherein the expected ECE is calculated by the Abbott method: […]
wherein ECE is the expected combined efficacy and in which A and B are the efficacy provided by the single active ingredients. If the ratio between the OCE of the mixture and the ECE of the mixture is greater than 1, then greater than expected interactions are present in the mixture. (Gisi, The American Phytopathological Society, 86:11, 1273-1279, 1996).

Thompson seedless grapes [3] = experiment: Example 3: field trial, bud break and shoot growth of Thompson seedless grapes; design: Shoot Growth: unit not given beside the values; conditions: for Shoot Growth: equals sum of the three length classes
Thompson seedless grapes [4] = experiment: as above
Description: Thompson seedless grapes were grown in the field in Kanoneiland, Northern Cape, South Africa during the 2021 growing season. Hydrogen cyanamide, malonate (malonic acid), and inpyrfluxam were each applied to the shoots of grape plants at 2 or 4 weeks before natural bud break. Plants were evaluated for bud break at 7 and 21 days after 1st bud break.

[5] = 2% v/v, 4 weeks before natural bud break
[6] = 2% v/v, applied 4 weeks before natural bud break
[7] = 486 ppm, applied 2 weeks before natural bud break
[8] = 486 ppm, applied 4 weeks before natural bud break
[9] = 486 ppm (Table 4), 2 weeks before natural bud break
[10] = 486 ppm, 2 weeks before natural bud break
[11] = 486 ppm, 4 weeks before natural bud break
[12] = applied at 10,000 ppm to shoots
[13] = 10,000 ppm, applied 2 weeks before natural bud break
[14] = 10,000 ppm, applied 4 weeks before natural bud break
[15] = 10,000 ppm (Table 4), 2 weeks before natural bud break
[16] = 10,000 ppm, 2 weeks before natural bud break
[17] = 10,000 ppm, 4 weeks before natural bud break

SMILES: N#CN [Hydrogen cyanamide, hydrogen cyanamide]
- Days to 50% BB (Concord grape vines [1]; applied at 2% v/v to shoots): 12 days
- Days to 100% BB (Concord grape vines [1]; applied at 2% v/v to shoots): 17 days
- Shoot Weight (Concord grape vines [1]; applied at 2% v/v): 27.4 g
- effect on the number of days to 50% bud break (in words) (Concord grape vines [1]; rates of Table 1, hydrogen cyanamide 2% v/v): no effect
- Days to 50% BB (Concord grape vines [2]; applied at 2% v/v to shoots): 18 days
- Days to 100% BB (Concord grape vines [2]; applied at 2% v/v to shoots): 16 days
- Shoot Weight (Concord grape vines [2]; applied at 2% v/v): 8.9 g
- Shoot Growth (%) 1-5 cm (Thompson seedless grapes [3]; [5]): 21.7%
- Shoot Growth (%) 5-10 cm (Thompson seedless grapes [3]; [5]): 16.1%
- Shoot Growth (%) >10 cm (Thompson seedless grapes [3]; [5]): 29.3 c %
- Shoot Growth (Thompson seedless grapes [3]; [5]): 67.2
- Bud Break % at 7 days after 1st bud break (Thompson seedless grapes [3]; [6]): 63.2 b %
- Bud Break % at 21 days after 1st bud break (Thompson seedless grapes [3]; [6]): 81.3 bcd %

SMILES: CC1CC(C)(C)c2c(F)ccc(NC(=O)c3cn(C)nc3C(F)F)c21 (stereo not shown) [Inpyrfluxam, inpyrfluxam]
- shoot weight, more than control (Concord grape vines [1]; 486 ppm (Table 1)): 44%
- Days to 50% BB (Concord grape vines [1]; applied at 486 ppm to shoots): 9 days
- Days to 100% BB (Concord grape vines [1]; applied at 486 ppm to shoots): 17 days
- Shoot Weight (Concord grape vines [1]; applied at 486 ppm): 47 g
- time to 50% bud break, faster than control (Concord grape vines [1]): about 25%
- time to 50% bud break, faster than control (Concord grape vines [2]; 486 ppm): about 12%
- time to 100% bud break, faster than control (Concord grape vines [2]; 486 ppm): 19%
- time to 100% bud break, faster than control (Concord grape vines [2]; 972 ppm): 38%
- Days to 50% BB (Concord grape vines [2]; applied at 97.2 ppm to shoots): 27 days
- Days to 100% BB (Concord grape vines [2]; applied at 97.2 ppm to shoots): 17 days
- Shoot Weight (Concord grape vines [2]; applied at 97.2 ppm): 9.1 g
- Days to 50% BB (Concord grape vines [2]; applied at 194.4 ppm to shoots): 29 days
- Days to 100% BB (Concord grape vines [2]; applied at 194.4 ppm to shoots): 28 days
- Shoot Weight (Concord grape vines [2]; applied at 194.4 ppm): 5.4 g
- Days to 50% BB (Concord grape vines [2]; applied at 486 ppm to shoots): 22 days
- Days to 100% BB (Concord grape vines [2]; applied at 486 ppm to shoots): 13 days
- Shoot Weight (Concord grape vines [2]; applied at 486 ppm): 7.6 g
- Days to 50% BB (Concord grape vines [2]; applied at 972 ppm to shoots): 27 days
- Days to 100% BB (Concord grape vines [2]; applied at 972 ppm to shoots): 10 days
- Shoot Weight (Concord grape vines [2]; applied at 972 ppm): 6.2 g
- Bud Break % at 7 days after 1st bud break (Thompson seedless grapes [4]; [7]): 29.7 a %
- Bud Break % at 21 days after 1st bud break (Thompson seedless grapes [4]; [7]): 100 f %
- Bud Break % at 21 days after 1st bud break (Thompson seedless grapes [4]; 486 ppm, applied 2 weeks before natural bud break, listed as inpyrfluxam): statistically significant increase over control
- Bud Break % at 7 days after 1st bud break (Thompson seedless grapes [4]; [8]): 36.8 a %
- increase in shoot growth over Dormex (Thompson seedless grapes [3]; [9]): 15%
- increase in shoot growth over control (Thompson seedless grapes [3]; [9]): 50%
- increase in shoot growth over control (Thompson seedless grapes [3]; 486 ppm (Table 4), 4 weeks before natural bud break): 27%
- Shoot Growth (%) 1-5 cm (Thompson seedless grapes [3]; [10]): 27.7%
- Shoot Growth (%) 5-10 cm (Thompson seedless grapes [3]; [10]): 21.1%
- Shoot Growth (%) >10 cm (Thompson seedless grapes [3]; [10]): 28.8 c %
- Shoot Growth (Thompson seedless grapes [3]; [10]): 77.6
- Shoot Growth (%) 1-5 cm (Thompson seedless grapes [3]; [11]): 25.9%
- Shoot Growth (%) 5-10 cm (Thompson seedless grapes [3]; [11]): 20.3%
- Shoot Growth (%) >10 cm (Thompson seedless grapes [3]; [11]): 19.7 b %
- Shoot Growth (Thompson seedless grapes [3]; [11]): 65.8
- Bud Break % at 21 days after 1st bud break (Thompson seedless grapes [3]; [8]): 90.3 def %
- Bud Break % at 21 days after 1st bud break (Thompson seedless grapes [3]; 486 ppm, applied 4 weeks before natural bud break, listed as inpyrfluxam): statistically significant increase over control

SMILES: O=C(O)CC(=O)O [Malonate, malonic acid]
- days to 100% bud break, faster than control (Concord grape vines [1]; 3,000 ppm): 10%
- shoot weight, more than control (Concord grape vines [1]; 3,000 ppm): 28%
- days to 100% bud break, faster than control (Concord grape vines [1]; 10,000 ppm): 19%
- shoot weight, more than control (Concord grape vines [1]; 10,000 ppm): 58%
- Days to 50% BB (Concord grape vines [1]; applied at 3,000 ppm to shoots): 7 days
- Days to 100% BB (Concord grape vines [1]; applied at 3,000 ppm to shoots): 19 days
- Shoot Weight (Concord grape vines [1]; applied at 3,000 ppm): 41.75 g
- Days to 50% BB (Concord grape vines [1]; [12]): 7 days
- Days to 100% BB (Concord grape vines [1]; [12]): 17 days
- Shoot Weight (Concord grape vines [1]; applied at 10,000 ppm): 51.4 g
- time to 50% bud break, faster than control (Concord grape vines [1]): about 40%
- time to 50% bud break, faster than control (Concord grape vines [2]; 1,000 ppm, 3,000 ppm and 10,000 ppm): about 4%
- time to 100% bud break, faster than control (Concord grape vines [2]; 10,000 ppm): 25%
- Days to 50% BB (Concord grape vines [2]; applied at 300 ppm to shoots): 25 days
- Days to 100% BB (Concord grape vines [2]; applied at 300 ppm to shoots): 20 days
- Shoot Weight (Concord grape vines [2]; applied at 300 ppm): 8.0 g
- Days to 50% BB (Concord grape vines [2]; applied at 1,000 ppm to shoots): 24 days
- Days to 100% BB (Concord grape vines [2]; applied at 1,000 ppm to shoots): 26 days
- Shoot Weight (Concord grape vines [2]; applied at 1,000 ppm): 8.8 g
- Days to 50% BB (Concord grape vines [2]; applied at 3,000 ppm to shoots): 24 days
- Days to 100% BB (Concord grape vines [2]; applied at 3,000 ppm to shoots): 17 days
- Shoot Weight (Concord grape vines [2]; applied at 3,000 ppm): 8.5 g
- Days to 50% BB (Concord grape vines [2]; [12]): 24 days
- Days to 100% BB (Concord grape vines [2]; [12]): 12 days
- Shoot Weight (Concord grape vines [2]; applied at 10,000 ppm): 7.9 g
- Bud Break % at 7 days after 1st bud break (Thompson seedless grapes [4]; [13]): 33.7 a %
- Bud Break % at 21 days after 1st bud break (Thompson seedless grapes [4]; [13]): statistically significant increase over control
- Bud Break % at 7 days after 1st bud break (Thompson seedless grapes [4]; [14]): 29 a %
- increase in shoot growth over Dormex (Thompson seedless grapes [3]; [15]): 11%
- increase in shoot growth over control (Thompson seedless grapes [3]; [15]): 44%
- increase in shoot growth over control (Thompson seedless grapes [3]; 10,000 ppm (Table 4), 4 weeks before natural bud break): 20%
- Shoot Growth (%) 1-5 cm (Thompson seedless grapes [3]; [16]): 23.3%
- Shoot Growth (%) 5-10 cm (Thompson seedless grapes [3]; [16]): 19.1%
- Shoot Growth (%) >10 cm (Thompson seedless grapes [3]; [16]): 32 c %
- Shoot Growth (Thompson seedless grapes [3]; [16]): 74.5
- Shoot Growth (%) 1-5 cm (Thompson seedless grapes [3]; [17]): 27.7%
- Shoot Growth (%) 5-10 cm (Thompson seedless grapes [3]; [17]): 17.8%
- Shoot Growth (%) >10 cm (Thompson seedless grapes [3]; [17]): 16.6 b %
- Shoot Growth (Thompson seedless grapes [3]; [17]): 62
- Bud Break % at 21 days after 1st bud break (Thompson seedless grapes [3]; [13]): 98.2 ef %
- Bud Break % at 21 days after 1st bud break (Thompson seedless grapes [3]; [14]): 87.5 cde %

SMILES: CC(C)CC(C)c1sccc1NC(=O)c1cn(C)nc1C(F)(F)F (stereo not shown) [Penthiopyrad, penthiopyrad]
- days to 100% bud break, faster than control (Concord grape vines [1]; 1,428 ppm (Table 1)): 38%
- Days to 50% BB (Concord grape vines [1]; applied at 1,428 ppm to shoots): 7 days
- Days to 100% BB (Concord grape vines [1]; applied at 1,428 ppm to shoots): 13 days
- Shoot Weight (Concord grape vines [1]; applied at 1,428 ppm): 29.4 g
- time to 50% bud break, faster than control (Concord grape vines [1]): about 40%

SMILES: CON(C(=O)c1cn(C)nc1C(F)F)C(C)Cc1c(Cl)cc(Cl)cc1Cl (stereo not shown) [Pydiflumetofen, pydiflumetofen]
- Days to 50% BB (Concord grape vines [1]; applied at 968 ppm to shoots): 9 days
- Days to 100% BB (Concord grape vines [1]; applied at 968 ppm to shoots): 26 days
- Shoot Weight (Concord grape vines [1]; applied at 968 ppm): 24 g
- time to 50% bud break, faster than control (Concord grape vines [1]): about 25%
